# Laboratory results reported in PubChem BioAssay (NCI).
# Values joined by “and” are separate entries in the source; they are usually repeats but may differ in a detail not shown here. Equal entries are not always repeated.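 These data come from cells grown in 96-well plates and exposed to compound for 48 hours at five concentrations. GI50: concentration for 50% inhibition of growth. Definition used: TGI = concentration required for complete inhibition of growth.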
# How the values were obtained:
# Assay in all cases: inhibition of tumour cell growth, NCI panel, 48 h
# [1] = test system: 786-0 renal
# [2] = test system: COLO 205 colon
# [3] = test system: SF-268 CNS
# [4] = test system: OVCAR-5 ovarian
# [5] = test system: ACHN renal
# [6] = test system: SK-OV-3 ovarian
# [7] = test system: HL-60(TB) leukemia
# [8] = test system: NCI-H522 lung
# [9] = test system: SNB-75 CNS
# [10] = test system: CCRF-CEM leukemia
SMILES,GI50 [1],TGI [1],GI50 [2],TGI [2],GI50 [3],TGI [3],GI50 [4],TGI [4],GI50 [5],TGI [5],GI50 [6],TGI [6],GI50 [7],TGI [7],GI50 [8],TGI [8],GI50 [9],TGI [9],GI50 [10],TGI [10]
Nc1ccccc1C#C/C=C\C#Cc1ccccc1OC(F)(F)F,5.48 µM,21 µM,5.19 µM,28 µM,6.44 µM,32 µM,13 µM,44.1 µM,9.15 µM,50.4 µM,7.12 µM,67.7 µM,2.08 µM,11.1 µM,3.47 µM,14 µM,2.47 µM,7.85 µM,1.11 µM,23.2 µM
O=[N+]([O-])c1cccc(-c2csc(NNC3=NC/C(=C/c4ccc5c(c4)OCO5)S3)n2)c1,,> 100 µM,,98.7 µM,,69 µM,,> 100 µM,,> 100 µM,,79 µM,,> 100 µM,,42.9 µM,,46.5 µM,,> 100 µM
Cc1cc(N(CCC#N)CCC#N)ccc1N=Nc1ccc(S(N)(=O)=O)cc1,,> 100 µM,,> 100 µM,,> 100 µM,,> 100 µM,,> 100 µM,,> 100 µM,,> 100 µM,,> 100 µM,,> 100 µM,,> 100 µM
CCCCCCCCCCCC(=O)OCCOCCOCCOCCOCCOCc1ccccc1,,> 100 µM,,> 100 µM,,> 100 µM,,> 100 µM,,> 100 µM,,> 100 µM,,> 100 µM,,> 100 µM,,> 100 µM,,> 100 µM
Cc1ccc2c(C)c3c(ccc4ccccc43)c[n+]2c1,20.1 µM,> 100 µM,11 µM,24.7 µM,2.87 µM,15.9 µM,39.5 µM,> 100 µM,29.6 µM,> 100 µM,18.6 µM,57.2 µM,21.5 µM,55.8 µM,15.5 µM,38.8 µM,11.9 µM,40.3 µM,8.89 µM,38.9 µM
Cc1c(C(=O)CC(=O)C(=O)Nc2ccccc2C(F)(F)F)[n+](=O)c2ccccc2n1[O-],,> 100 µM,,32.2 µM,,69 µM,,65.9 µM,,> 100 µM,,> 100 µM,,66.2 µM,,35.8 µM,,,,50 µM
NS(=O)(=O)c1ccc2c(c1)OCCOCCOCCOCCO2,,> 100 µM,,> 100 µM,,> 100 µM,,,,> 100 µM,,> 100 µM,,> 100 µM,,> 100 µM,,> 100 µM,,> 100 µM
CCCCCCCCCCCCCC(=O)OC(/C=C/C(C)C)C(O)C(O)C(OC)C(=O)NC1CCCCN(C)C1=O (stereo not given),,5.94 µM and > 49 µM,,,,8.63 µM and > 49 µM,> 49 µM,10.8 µM and > 49 µM,,5.14 µM and > 49 µM,> 49 µM,11.5 µM and > 49 µM,,5.49 µM and 10.4 µM and > 49 µM,,6.67 µM and > 49 µM,,8.6 µM and > 49 µM,> 49 µM,10.7 µM and > 49 µM
